# Test results from ChEMBL document CHEMBL4270672, “Synthesis and Biological Evaluation of Fused Tricyclic Heterocycle Piperazine (Piperidine) Derivatives As Potential Multireceptor Atypical Antipsychotics” (J Med Chem, 2018).
# How the values were obtained:
# [1] = biological target: 5-hydroxytryptamine receptor 2A (Homo sapiens, UniProt P28223); experiment: Antagonist activity at serotonin 5-HT2A receptor (unknown origin) expressed in HEK293 cells assessed as inhibition of serotonin-induced calcium flux at 10 uM after 15 mins by calcium 4-dye based FLIPR assay relative to control; assay type: functional, cell-based
# Sequence of 5-hydroxytryptamine receptor 2A (P28223 whole entry): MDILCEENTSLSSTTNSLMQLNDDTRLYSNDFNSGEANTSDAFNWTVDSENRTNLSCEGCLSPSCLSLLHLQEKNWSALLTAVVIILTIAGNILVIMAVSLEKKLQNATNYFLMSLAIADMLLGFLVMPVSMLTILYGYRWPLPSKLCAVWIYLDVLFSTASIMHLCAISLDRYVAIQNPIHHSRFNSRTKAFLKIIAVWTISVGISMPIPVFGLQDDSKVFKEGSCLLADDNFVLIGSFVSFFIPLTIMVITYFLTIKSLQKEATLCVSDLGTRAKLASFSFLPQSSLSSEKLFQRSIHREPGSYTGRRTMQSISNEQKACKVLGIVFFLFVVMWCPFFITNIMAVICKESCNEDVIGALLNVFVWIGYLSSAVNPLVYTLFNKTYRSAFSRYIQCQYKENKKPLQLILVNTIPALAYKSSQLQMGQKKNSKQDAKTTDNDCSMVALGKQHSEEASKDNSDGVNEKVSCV
# [2] = AUC (0 to t) in Sprague-Dawley rat at 10 mg/kg, po by LC-MS/MS analysis; assay type: ADME, organism-based; details: in vivo
# Rattus norvegicus = experiment: AUC (0 to infinity) in Sprague-Dawley rat at 1 mg/kg, iv by LC-MS/MS analysis; assay type: ADME, organism-based; set-up: dose 1 mg/kg, route intravenous, time infinity; details: in vivo
# D(1A) dopamine receptor [3] = biological target: D(1A) dopamine receptor (Rattus norvegicus, UniProt P18901); experiment: Displacement of [3H]-SCH23390 from dopamine D1 receptor in rat strriatum homogenates after 20 mins by liquid scintillation counting
# Sequence of D(1A) dopamine receptor (Rattus norvegicus, UniProt P18901) (P18901 whole entry): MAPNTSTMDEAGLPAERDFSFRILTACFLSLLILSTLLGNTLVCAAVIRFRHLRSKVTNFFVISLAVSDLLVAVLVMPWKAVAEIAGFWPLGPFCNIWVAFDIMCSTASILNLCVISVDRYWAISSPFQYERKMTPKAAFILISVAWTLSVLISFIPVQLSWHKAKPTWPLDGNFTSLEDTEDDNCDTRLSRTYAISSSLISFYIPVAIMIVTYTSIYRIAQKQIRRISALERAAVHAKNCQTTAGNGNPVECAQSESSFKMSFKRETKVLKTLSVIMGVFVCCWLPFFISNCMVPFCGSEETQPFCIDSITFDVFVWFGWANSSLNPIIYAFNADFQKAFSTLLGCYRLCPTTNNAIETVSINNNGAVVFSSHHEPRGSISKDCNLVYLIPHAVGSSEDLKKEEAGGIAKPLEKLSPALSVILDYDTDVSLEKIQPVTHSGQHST
# D(1A) dopamine receptor [4] = biological target: D(1A) dopamine receptor (Homo sapiens, UniProt P21728); experiment: Antagonist activity at human dopamine D1 receptor expressed in HEK293T cells assessed as inhibition of dopamine-induced cAMP accumulation preincubated for 15 mins followed by dopamine induction and measured after 30 mins by HTRF assay; assay type: functional, cell-based
# Sequence of D(1A) dopamine receptor (Homo sapiens, UniProt P21728) (P21728 whole entry): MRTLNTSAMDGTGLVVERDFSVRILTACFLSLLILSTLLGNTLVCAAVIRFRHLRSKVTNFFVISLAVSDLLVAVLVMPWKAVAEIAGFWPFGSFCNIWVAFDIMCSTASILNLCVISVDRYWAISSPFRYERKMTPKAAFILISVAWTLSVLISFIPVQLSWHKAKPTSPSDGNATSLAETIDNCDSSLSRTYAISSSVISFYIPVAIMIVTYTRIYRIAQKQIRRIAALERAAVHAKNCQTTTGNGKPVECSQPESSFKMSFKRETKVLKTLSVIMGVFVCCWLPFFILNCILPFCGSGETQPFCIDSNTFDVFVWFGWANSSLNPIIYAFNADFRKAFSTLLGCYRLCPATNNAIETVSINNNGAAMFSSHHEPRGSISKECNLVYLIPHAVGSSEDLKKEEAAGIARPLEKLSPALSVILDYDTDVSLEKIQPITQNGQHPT
# Histamine H3 receptor = Histamine H3 receptor (Rattus norvegicus, UniProt Q9QYN8); experiment: Displacement of [3H] methylhistamine from histamine H3 receptor in rat cerebral cotex homogenates after 30 mins by liquid scintillation counting
# Sequence of Histamine H3 receptor (Q9QYN8 whole entry): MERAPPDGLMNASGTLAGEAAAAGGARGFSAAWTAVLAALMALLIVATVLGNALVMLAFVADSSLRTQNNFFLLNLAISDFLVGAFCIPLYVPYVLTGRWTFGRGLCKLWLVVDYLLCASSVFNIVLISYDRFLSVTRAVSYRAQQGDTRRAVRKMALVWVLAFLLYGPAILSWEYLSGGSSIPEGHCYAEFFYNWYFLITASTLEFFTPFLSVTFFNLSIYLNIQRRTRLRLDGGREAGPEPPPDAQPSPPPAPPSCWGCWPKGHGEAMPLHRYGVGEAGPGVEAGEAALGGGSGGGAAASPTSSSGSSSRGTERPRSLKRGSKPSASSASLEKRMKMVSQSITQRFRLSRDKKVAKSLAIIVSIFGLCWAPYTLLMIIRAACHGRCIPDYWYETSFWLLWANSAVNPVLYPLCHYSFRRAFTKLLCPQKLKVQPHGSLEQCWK
# [5] = Displacement of [3H] nisoxetine from NET in rat hippocampal membrane homogenates after 8 hrs by liquid scintillation counting; assay type: cell membranes
# D(3) dopamine receptor = D(3) dopamine receptor (Homo sapiens, UniProt P35462)
# Sequence of D(3) dopamine receptor (P35462 whole entry): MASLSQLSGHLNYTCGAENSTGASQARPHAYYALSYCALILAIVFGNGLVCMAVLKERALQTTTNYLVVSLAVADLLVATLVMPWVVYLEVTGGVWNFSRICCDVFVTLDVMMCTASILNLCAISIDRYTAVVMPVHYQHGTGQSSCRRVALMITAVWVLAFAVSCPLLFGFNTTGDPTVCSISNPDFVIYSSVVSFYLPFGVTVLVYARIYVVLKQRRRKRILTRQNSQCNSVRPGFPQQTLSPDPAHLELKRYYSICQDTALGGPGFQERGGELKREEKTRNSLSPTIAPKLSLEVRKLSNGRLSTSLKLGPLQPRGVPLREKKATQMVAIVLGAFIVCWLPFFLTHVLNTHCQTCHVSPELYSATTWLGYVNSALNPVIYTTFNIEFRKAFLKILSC
# Mus musculus = species: Mus musculus; experiment: animal or person; details: Kunming, po
# Description: Antipsychotic activity in po dosed Kunming mouse assessed as reduction in apomorphine-induced climbing pretreated for 30 mins followed by apomorphine injection measured at 10 to 30 mins post dose
structure (smiles),measurement,setting,value
O=C(CCCCN1CCC(c2noc3cc(F)ccc23)CC1)c1cc2c3c(c1)CCN3C(=O)CC2,inhibition,[1],100%
same,AUC(0-t),[2],18.5 µg·h/mL
same,AUC,Rattus norvegicus,3.1512 µg·h/mL
same,Ki,D(1A) dopamine receptor [3],0.0769 µM
same,IC50,D(1A) dopamine receptor [4],0.366 µM
same,Ki,Histamine H3 receptor,> 1 µM
same,Ki,[5],> 1 µM
same,IC50,D(3) dopamine receptor,0.0256 µM
same,ED50,Mus musculus,0.61 mg/kg
